Test results reported in patent US6576190B1, “Method and apparatus for sterilizing and disinfecting bedclothes using ultraviolet rays and ozone” (Bioneer Corporation, priority 1999, dated 2003).

What was measured:
[1] = test system: Staphylococcus aureus KCTC 1621; assay: Test for sterilizing microorganisms, ozone exposure of agar culture; assay type: cell-based; conditions: S. aureus, ozone 70 ppm, humidity 50%, no direct UV
Excerpt: (§1) The microorganisms used for the sterilization test were Escherichia coli DH12S, Staphylococcus aureus KCTC 1621 and Candida albicans KCTC 7965, which are known as pathogenic microorganisms. An UV/O3 lamp ([…]) was used as the generator for generating ultraviolet rays and ozone.
(§2) Each of the microorganisms was cultivated on appropriate culture medium used commonly: Escherichia coli was cultivated on LB culture medium, Staphylococcus aureus was cultivated on Tryptic Soy culture medium; and Candida albicans was cultivated on YM culture medium. A sample of the microorganism was prepared as follows: After each of the microorganisms was cultivated on agar culture medium, one colony was taken. And then the colony was inoculated into broths of 5 ml, which was cultivated for two hours. The sample prepared as mentioned above was kept in cold storage for the following use. The broths used for cultivation were diluted gradually from an undiluted solution to 10-8, and then they were painted over the agar culture medium. One control was obtained from each of the diluted samples, and seven samples for test were obtained from each of the diluted samples. The control and samples were subject to pre-incubation in the incubator with the temperature of 37° C. for 30 minutes, which was used for sterilization test.
(§3) The concentration of the ozone in the sterilizing and disinfecting room reached 50 ppm within two or three minutes. And the concentration of the ozone was adjusted so that it was maintained to 70 ppm.
(§4) The humidity was maintained to 50%. The agar culture medium was placed on several position where it was not exposed to the ultraviolet rays and it had good ventilation. One agar culture medium corresponding to the bedclothes as a test sample was taken every ten minutes after the generator for generating the ultraviolet rays and the ozone was operated. The agar culture medium was cultivated together with the control sample in the incubator with the temperature of 37° C. for 48 hours. […] The number of the real microorganisms and the number of the surviving microorganisms were added together taking the number of the colony and the dilution rate of each sample into account. The test as mentioned above was repeated three times for the purpose of obtaining the statistical effectiveness.

[2] = test system: Escherichia coli DH12S; assay: as above; assay type: cell-based; conditions: E. coli, ozone 70 ppm, humidity 50%, no direct UV
Excerpt: as §1, §2, §3, §4

[3] = test system: Candida albicans KCTC 7965; assay: as above; assay type: cell-based; conditions: C. albicans, ozone 70 ppm, humidity 50%, no direct UV
Excerpt: as §1, §2, §3, §4

[4] = test system: house dust mites (Dermatophagoides farinae, Dermatophagoides pterohyssinus and Tyrophagus putrescentiae mixed); assay: Test for killing mites; assay type: in vivo; conditions: ozone 50 ppm, humidity 72%, 2 hours, no direct UV
Excerpt: Mites used for test was the house dust mites (samples containing Dermatophagoides farinae, Dermatophagoides pterohyssinus and Tyrophagus putrescentiae mixed up one another were used) which were generally known as primary cause of allergy, which was distributed from the parasitology class of the medical college of Yonsei University in Korea. After the opening the lid of the tube containing twenty mites, the mites were exposed to the environment with the ozone of 50 ppm and the humidity of 72% for 2 hours while the mites were not exposed directly to the ultraviolet rays. After exposition of the mites to the ozone for a given time period, the number of the surviving mites and the number of the dead mites were counted by means of a microscopic examination.

O=[O+][O-] [ozone]
Number of surviving microorganisms (surviving colonies) ([1]; exposure 10 min.): 1,220,000
Number of surviving microorganisms (surviving colonies) ([1]; exposure 20 min.): 101,000
Number of surviving microorganisms (surviving colonies) ([1]; exposure 30 min.): 9,100
Number of surviving microorganisms (surviving colonies) ([1]; exposure 40 min.): 1,260
Number of surviving microorganisms (surviving colonies) ([1]; exposure 50 min.): 345
Number of surviving microorganisms (surviving colonies) ([1]; exposure 60 min.): 96
Number of surviving microorganisms (surviving colonies) ([2]; exposure 10 min.): 11,000
Number of surviving microorganisms (surviving colonies) ([2]; exposure 20 min.): 2,700
Number of surviving microorganisms (surviving colonies) ([2]; exposure 30 min.): 559
Number of surviving microorganisms (surviving colonies) ([2]; exposure 40 min.): 270
Number of surviving microorganisms (surviving colonies) ([2]; exposure 50 min.): 101
Number of surviving microorganisms (surviving colonies) ([2]; exposure 60 min.): 52
Number of surviving microorganisms (surviving colonies) ([3]; exposure 10 min.): 12,400
Number of surviving microorganisms (surviving colonies) ([3]; exposure 20 min.): 2,840
Number of surviving microorganisms (surviving colonies) ([3]; exposure 30 min.): 960
Number of surviving microorganisms (surviving colonies) ([3]; exposure 40 min.): 388
Number of surviving microorganisms (surviving colonies) ([3]; exposure 50 min.): 192
Number of surviving microorganisms (surviving colonies) ([3]; exposure 60 min.): 118
Killing of young mites [4]: all of the young mites were killed
State of surviving large mites [4]: a few surviving large mites were not able to be active normally, which were dead as times went by
Number of dead mites ([4]; twenty mites, microscopic examination): most of the mites (for example, seventeen mites) were killed
